Reference: ChEMBL document CHEMBL1201862, “PubChem BioAssay data set” (2004)
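Tested at 5 concentrations; 48 h exposure; 96-well plates; endpoints linearly interpolated, else capped at highest concentration. At the GI50, growth is halved.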 Calls of active or inactive are those of the source. Cut-off read from the data, not from the text of the source: active = GI50 up to about 1.1 µM and inactive = higher.

Assays:
Test in all cases: NCI tumour cell line growth inhibition, 48 h
HOP-92 = system: HOP-92
SN12C = system: SN12C
SNB-19 = system: SNB-19
LOX IMVI = system: LOX IMVI
TK-10 = system: TK-10
IGROV-1 = system: IGROV-1
OVCAR-8 = system: OVCAR-8
OVCAR-5 = system: OVCAR-5
HOP-62 = system: HOP-62
CCRF-CEM = system: CCRF-CEM
A498 = system: A498
NCI-H226 = system: NCI-H226
SF-295 = system: SF-295
SK-MEL-2 = system: SK-MEL-2
Malme-3M = system: Malme-3M
PC-3 = system: PC-3
HT-29 = system: HT-29
NCI-H23 = system: NCI-H23
NCI/ADR-RES = system: NCI/ADR-RES
DMS-114 = system: DMS-114

Structure (SMILES)	GI50 (HOP-92)	GI50 (SN12C)	GI50 (SNB-19)	GI50 (LOX IMVI)	GI50 (TK-10)	GI50 (IGROV-1)	GI50 (OVCAR-8)	GI50 (OVCAR-5)	GI50 (HOP-62)	GI50 (CCRF-CEM)	GI50 (A498)	GI50 (NCI-H226)	GI50 (SF-295)	GI50 (SK-MEL-2)	GI50 (Malme-3M)	GI50 (PC-3)	GI50 (HT-29)	GI50 (NCI-H23)	GI50 (NCI/ADR-RES)	GI50 (DMS-114)
Oc1ccc(-c2cn3cc(C(F)(F)F)ccc3n2)cc1	> 100 µM (inactive)	72.3 µM (inactive)	> 100 µM (inactive)	43.2 µM (inactive)	41.5 µM (inactive)	63.2 µM (inactive)	37.8 µM (inactive)	76.9 µM (inactive)	> 100 µM (inactive)	15.9 µM (inactive)	70.1 µM (inactive)	74.3 µM (inactive)	45.7 µM (inactive)	62.2 µM (inactive)	71.8 µM (inactive)	46.9 µM (inactive)	34.8 µM (inactive)	38 µM (inactive)	29.9 µM (inactive)	
CCOC(=O)C(NC(=O)CC)(Nc1ccc(S(=O)(=O)Nc2ccc(OC)nn2)cc1)C(F)(F)F (configuration not stated)	> 100 µM (inactive)	> 100 µM (inactive)	> 100 µM (inactive)	> 100 µM (inactive)	> 100 µM (inactive)	> 100 µM (inactive)	> 100 µM (inactive)	> 100 µM (inactive)	> 100 µM (inactive)	> 100 µM (inactive)	> 100 µM (inactive)	> 100 µM (inactive)	> 100 µM (inactive)	> 100 µM (inactive)	> 100 µM (inactive)	> 100 µM (inactive)	> 100 µM (inactive)	> 100 µM (inactive)	> 100 µM (inactive)	
Cc1cccc(NC(=O)CSc2nnc(-c3ccc(/N=C\c4ccc(Cl)cc4)cc3)o2)c1		> 100 µM (inactive)	> 100 µM (inactive)	72.9 µM (inactive)	> 100 µM (inactive)		> 100 µM (inactive)		> 100 µM (inactive)	> 100 µM (inactive)		> 100 µM (inactive)	> 100 µM (inactive)	> 100 µM (inactive)	> 100 µM (inactive)		> 100 µM (inactive)	> 100 µM (inactive)		> 100 µM (inactive)
CC1CCCCN1CC(=O)c1ccc2c(c1)Sc1ccccc1O2 (configuration not stated)	13.2 µM (inactive)	18.7 µM (inactive)	17.9 µM (inactive)	9.93 µM (inactive)	18.7 µM (inactive)	6.49 µM (inactive)	15 µM (inactive)	18.1 µM (inactive)	15.5 µM (inactive)	16.5 µM (inactive)	18.8 µM (inactive)	12.9 µM (inactive)	16.5 µM (inactive)	17.9 µM (inactive)	13.5 µM (inactive)	11.8 µM (inactive)	8.61 µM (inactive)	15.2 µM (inactive)	16.7 µM (inactive)	
COc1ccccc1C1C(Cl)C(=O)N1NC(=O)Cc1ccccc1 (configuration not stated)		> 100 µM (inactive)	> 100 µM (inactive)	50.5 µM (inactive)	> 100 µM (inactive)	> 100 µM (inactive)	> 100 µM (inactive)	> 100 µM (inactive)	82.4 µM (inactive)	> 100 µM (inactive)		48.5 µM (inactive)	> 100 µM (inactive)	53.7 µM (inactive)	53.2 µM (inactive)		> 100 µM (inactive)	> 100 µM (inactive)		37.5 µM (inactive)
NC12CC3C4CC5(N)CC3C(C1)C(C5)C4C2	> 100 µM (inactive)	> 100 µM (inactive)	> 100 µM (inactive)	> 100 µM (inactive)	> 100 µM (inactive)	> 100 µM (inactive)	> 100 µM (inactive)	> 100 µM (inactive)	> 100 µM (inactive)	> 100 µM (inactive)	> 100 µM (inactive)	> 100 µM (inactive)	> 100 µM (inactive)	> 100 µM (inactive)	> 100 µM (inactive)	> 100 µM (inactive)	> 100 µM (inactive)	> 100 µM (inactive)	> 100 µM (inactive)	
Cc1ccc(S(=O)(=O)N2CCN(CCN(C)CCN3CCN(S(=O)(=O)c4ccc(C)cc4)CC3)CC2)cc1	17.7 µM (inactive)	18.5 µM (inactive)	26.2 µM (inactive)	17.2 µM (inactive)	16.1 µM (inactive)	16.3 µM (inactive)	17.4 µM (inactive)	28.5 µM (inactive)	17.8 µM (inactive)	18.7 µM (inactive)	16.4 µM (inactive)	25.7 µM (inactive)	17.9 µM (inactive)	18.8 µM (inactive)	18.6 µM (inactive)	20.7 µM (inactive)	14.5 µM (inactive)	22.6 µM (inactive)	20 µM (inactive)	
Cc1ccc(-c2n[nH]c(=O)[nH]2)cc1[N+](=O)[O-]	> 100 µM (inactive)	> 100 µM (inactive)	> 100 µM (inactive)	> 100 µM (inactive)	> 100 µM (inactive)	> 100 µM (inactive)	> 100 µM (inactive)	> 100 µM (inactive)	> 100 µM (inactive)	> 100 µM (inactive)	> 100 µM (inactive)	> 100 µM (inactive)	> 100 µM (inactive)	> 100 µM (inactive)	> 100 µM (inactive)	> 100 µM (inactive)	> 100 µM (inactive)	> 100 µM (inactive)	> 100 µM (inactive)	
CCCCCC(/C=N/NC(N)=S)C(O)(C(F)(F)F)C(F)(F)F (configuration not stated)	> 10 µM (inactive)	> 10 µM (inactive)	> 10 µM (inactive)	> 10 µM (inactive)	> 10 µM (inactive)	> 10 µM (inactive)	> 10 µM (inactive)	> 10 µM (inactive)	> 10 µM (inactive)	> 10 µM (inactive)	> 10 µM (inactive)	> 10 µM (inactive)	> 10 µM (inactive)	> 10 µM (inactive)	> 10 µM (inactive)	> 10 µM (inactive)	> 10 µM (inactive)	> 10 µM (inactive)	> 10 µM (inactive)	
COc1cc(S(=O)(=O)Nc2nc(-c3ccc(N)cc3)cs2)ccc1Cl	64.9 µM (inactive)	34.4 µM (inactive)	91.4 µM (inactive)	91.8 µM (inactive)	48 µM (inactive)	44.7 µM (inactive)	64.7 µM (inactive)	> 100 µM (inactive)	> 100 µM (inactive)	48.5 µM (inactive)	84.3 µM (inactive)	41.7 µM (inactive)	43.4 µM (inactive)	69.5 µM (inactive)	> 100 µM (inactive)	51.8 µM (inactive)	54 µM (inactive)	45.8 µM (inactive)	89.5 µM (inactive)	
O=c1[nH]c(=O)n(C2CC(O)C(CO)O2)c2nc3ccc4cc5ccccc5cc4c3nc12 (configuration not stated)	> 100 µM (inactive)	> 100 µM (inactive)	> 100 µM (inactive)	14.8 µM (inactive)	> 100 µM (inactive)	> 100 µM (inactive)	> 100 µM (inactive)	> 100 µM (inactive)	> 100 µM (inactive)	> 100 µM (inactive)	> 100 µM (inactive)	> 100 µM (inactive)	> 100 µM (inactive)	> 100 µM (inactive)	> 100 µM (inactive)	> 100 µM (inactive)	> 100 µM (inactive)	> 100 µM (inactive)	> 100 µM (inactive)	
COc1c(OC(C)=O)c(OC(C)=O)cc2c1-c1ccc(SC)c(=O)cc1C(NC(C)=O)CC2 (configuration not stated)	0.425 µM (active)	0.993 µM (active)	0.42 µM (active)	1.81 µM (inactive)	15.3 µM (inactive)	0.933 µM (active)	1.49 µM (inactive)	10.1 µM (inactive)	0.681 µM (active)	0.384 µM (active)	4.02 µM (inactive)	7.82 µM (inactive)	1.45 µM (inactive)	0.31 µM (active)	0.468 µM (active)	2.14 µM (inactive)	0.461 µM (active)	0.392 µM (active)	> 76.6 µM (inactive)	
COC(=O)C1C(=O)CC(C)(O)C(C(=O)OC)C1c1ccc(N(C)C)cc1 (configuration not stated)	> 100 µM (inactive)	> 100 µM (inactive)	> 100 µM (inactive)	11.6 µM (inactive)	> 100 µM (inactive)	> 100 µM (inactive)	> 100 µM (inactive)	> 100 µM (inactive)	> 100 µM (inactive)	> 100 µM (inactive)	> 100 µM (inactive)	> 100 µM (inactive)	> 100 µM (inactive)	> 100 µM (inactive)	> 100 µM (inactive)	> 100 µM (inactive)	> 100 µM (inactive)	> 100 µM (inactive)	> 100 µM (inactive)	
CC(C)(O)CCC(O)C(C)(O)C1CCC2(O)C3=CC(=O)C4(O)CC(O)C(O)CC4(C)C3CCC12C.CC(C)(O)CCC(O)C(C)(O)C1CCC2(O)C3=CC(=O)C4CC(O)C(O)CC4(C)C3CCC12C (configuration not stated)	> 100 µM (inactive)	> 100 µM (inactive)	> 100 µM (inactive)	> 100 µM (inactive)	> 100 µM (inactive)	> 100 µM (inactive)	> 100 µM (inactive)	> 100 µM (inactive)	> 100 µM (inactive)	> 100 µM (inactive)	> 100 µM (inactive)	> 100 µM (inactive)	> 100 µM (inactive)	> 100 µM (inactive)	> 100 µM (inactive)	> 100 µM (inactive)	> 100 µM (inactive)	> 100 µM (inactive)	> 100 µM (inactive)	
COc1ccc(NC(=O)CC(=O)n2nc(C)c(/N=N/c3ccc(C)c(C)c3)c2C)cc1	16 µM (inactive)	> 100 µM (inactive)	58.3 µM (inactive)	50.5 µM (inactive)	55.1 µM (inactive)	29.4 µM (inactive)	29.7 µM (inactive)	> 100 µM (inactive)	22.9 µM (inactive)	> 100 µM (inactive)	63.8 µM (inactive)	51.3 µM (inactive)	54.7 µM (inactive)	> 100 µM (inactive)	> 100 µM (inactive)	> 100 µM (inactive)	> 100 µM (inactive)	71.4 µM (inactive)	> 100 µM (inactive)	
